These results are taken from patent US11254690B2, “PTEFb inhibiting macrocyclic compounds” (BAYER AKTIENGESELLSCHAFT, priority 2017, dated 2022).

The structures appear in SMILES notation. Like-named read-outs stand apart in the source and are kept apart here.

For experiment [1] the following is noted: in vivo; cited from earlier work.
In a further experiment the target is T1, CDK9/CycT1 (Homo sapiens, UniProt P50750).
T1 construct: Recombinant full-length His-tagged human CDK9 and CycT1; His; purchased Life Technologies PV4131; host or cells: insect cells
T1 sequence (P50750 whole entry): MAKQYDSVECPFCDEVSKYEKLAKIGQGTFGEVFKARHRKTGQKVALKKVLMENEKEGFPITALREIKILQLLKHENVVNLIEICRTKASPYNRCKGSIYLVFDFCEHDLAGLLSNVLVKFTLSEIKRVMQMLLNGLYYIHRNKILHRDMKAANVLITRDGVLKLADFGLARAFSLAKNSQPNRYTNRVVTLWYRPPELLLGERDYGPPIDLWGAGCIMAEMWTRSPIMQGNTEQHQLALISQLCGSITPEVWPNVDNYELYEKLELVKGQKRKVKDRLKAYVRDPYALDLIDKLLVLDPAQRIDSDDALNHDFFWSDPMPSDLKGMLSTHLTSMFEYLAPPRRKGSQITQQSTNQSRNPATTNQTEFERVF
T1 sequence (O60563 whole entry partner): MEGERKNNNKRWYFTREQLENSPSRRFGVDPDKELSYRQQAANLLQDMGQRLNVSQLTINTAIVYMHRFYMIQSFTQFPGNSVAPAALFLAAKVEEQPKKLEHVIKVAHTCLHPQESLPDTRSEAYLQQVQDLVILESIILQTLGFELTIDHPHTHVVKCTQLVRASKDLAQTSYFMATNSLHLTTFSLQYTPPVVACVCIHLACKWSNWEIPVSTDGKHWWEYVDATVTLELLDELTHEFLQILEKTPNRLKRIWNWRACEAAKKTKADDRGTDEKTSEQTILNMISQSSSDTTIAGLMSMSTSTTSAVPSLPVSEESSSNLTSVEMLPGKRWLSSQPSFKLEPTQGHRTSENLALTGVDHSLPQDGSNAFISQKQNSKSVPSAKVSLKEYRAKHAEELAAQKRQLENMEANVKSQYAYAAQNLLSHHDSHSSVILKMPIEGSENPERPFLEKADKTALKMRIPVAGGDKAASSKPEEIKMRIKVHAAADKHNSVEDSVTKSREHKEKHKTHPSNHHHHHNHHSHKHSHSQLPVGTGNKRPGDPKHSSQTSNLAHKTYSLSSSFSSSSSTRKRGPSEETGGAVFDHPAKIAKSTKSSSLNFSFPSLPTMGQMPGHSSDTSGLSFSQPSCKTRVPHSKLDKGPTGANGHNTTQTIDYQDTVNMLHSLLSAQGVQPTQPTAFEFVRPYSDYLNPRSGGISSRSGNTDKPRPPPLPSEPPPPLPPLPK
The experiment is described as follows: CDK9/CycT1 high ATP kinase assay (TR-FRET, 2 mM ATP). The experiment is classed as biochemical. To be noted: for IC50: 2 mM ATP, Method 1b, lower limit for IC50s about 1-2 nM; for Selectivity high ATP CDK9 over high ATP CDK2: IC50 (high ATP CDK2)/IC50 (high ATP CDK9): ratio from Methods 1b and 2b, minimal values for IC50s near the assay limit. Here is the method:
1b. CDK9/CycT1 High ATP Kinase Assay
CDK9/CycT1-inhibitory activity of compounds of the present invention at a high ATP concentration after preincubation of enzyme and test compounds was quantified employing the CDK9/CycT1 TR-FRET assay as described in the following paragraphs.
Recombinant full-length His-tagged human CDK9 and CycT1, expressed in insect cells and purified by Ni-NTA affinity chromatography, were purchased from Life Technologies (Cat. No PV4131). As substrate for the kinase reaction biotinylated peptide biotin-Ttds-YISPLKSPYKISEG (C-terminus in amide form) was used which can be purchased e.g. form the company JERINI peptide technologies (Berlin, Germany).
(§1) For the assay 50 nl of a 100 fold concentrated solution of the test compound in DMSO was pipetted into either a black low volume 384 well microtiter plate or a black 1536 well microtiter plate (both Greiner Bio-One, Frickenhausen, Germany), 2 μl of a solution of CDK9/CycT1 in aqueous assay buffer [50 mM Tris/HCl pH 8.0, 10 mM MgCl2, 1.0 mM dithiothreitol, 0.1 mM sodium ortho-vanadate, 0.01% (v/v) Nonidet-P40 (Sigma)] were added and the mixture was incubated for 15 min at 22° C. to allow pre-binding of the test compounds to the enzyme before the start of the kinase reaction. […] The concentration of CDK9/CycT1 was adjusted depending of the activity of the enzyme lot and was chosen appropriate to have the assay in the linear range, typical concentrations were in the range of 0.5 μg/ml. The reaction was stopped by the addition of 3 μl of a solution of TR-FRET detection reagents (0.33 μM streptavidine-XL665 [Cisbio Bioassays, Codolet, France] and 1.67 nM anti-RB(pSer807/pSer811)-antibody from BD Pharmingen [#558389] and 2 nM LANCE EU-W1024 labeled anti-mouse IgG antibody [Perkin-Elmer, product no. AD0077]) in an aqueous EDTA-solution (167 mM EDTA, 0.2% (w/v) bovine serum albumin in 100 mM HEPES pH 7.5).
(§2) The resulting mixture was incubated 1 h at 22° C. to allow the formation of complex between the phosphorylated biotinylated peptide and the detection reagents. Subsequently the amount of phosphorylated substrate was evaluated by measurement of the resonance energy transfer from the Eu-chelate to the streptavidine-XL. Therefore, the fluorescence emissions at 620 nm and 665 nm after excitation at 350 nm was measured in a TR-FRET reader, e.g. a Pherastar (BMG Labtechnologies, Offenburg, Germany) or a Viewlux (Perkin-Elmer). The ratio of the emissions at 665 nm and at […] was taken as the measure for the amount of phosphorylated substrate. The data were normalised (enzyme reaction without inhibitor=0% inhibition, all other assay components but no enzyme=100% inhibition).
Background: Time-resolved FRET reads energy transfer from a long-lived donor to a nearby acceptor.

For a further experiment, the target named is T2, CDK2/CycE (Homo sapiens, UniProt P24941).
T2 construct: GST; purchased ProQinase GmbH (Freiburg, Germany); host or cells: insect cells (Sf9)
The experiment is described as follows: CDK2/CycE high ATP kinase assay (TR-FRET, 2 mM ATP). The note with it: Method 2b. The experiment is classed as biochemical. As for the experimental part: 2b. CDK2/CycE High ATP Kinase Assay
CDK2/CycE-inhibitory activity of compounds of the present invention at 2 mM adenosine-tri-phosphate (ATP) was quantified employing the CDK2/CycE TR-FRET (TR-FRET=Time Resolved Fluorescence Energy Transfer) assay as described in the following paragraphs.
Recombinant fusion proteins of GST and human CDK2 and of GST and human CycE, expressed in insect cells (Sf9) and purified by Glutathion-Sepharose affinity chromatography, were purchase from ProQinase GmbH (Freiburg, Germany). As substrate for the kinase reaction biotinylated peptide biotin-Ttds-YISPLKSPYKISEG (C-terminus in amid form) was used which can be purchased e.g. form the company JERINI peptide technologies (Berlin, Germany).
as §1, with “CDK2/CycE” for “CDK9/CycT1”, “about 10 ng/ml.” for “in the range of 0.5 μg/ml.”, “(0.333” for “(0.33”, “AD0077, as an alternative a Terbium-cryptate-labeled anti-mouse IgG antibody from Cisbio Bioassays can be used])” for “AD0077])”
as §2

A further experiment relates to A2780 cells. The experiment is described as follows: Proliferation assay, A2780. The format is cell-based, human. To be noted: 72-hour exposure, Cell Titre-Glo, read-out: Inhibition of A2780 cell proliferation IC50. Here is the method: Cultivated tumour cells (HeLa, human cervical tumour cells, ATCC CCL-2; NCI-H460, human non-small cell lung carcinoma cells, ATCC HTB-177; DU 145, hormone-independent human prostate carcinoma cells, ATCC HTB-81; HeLa-MaTu-ADR, multidrug-resistant human cervical carcinoma cells, EPO-GmbH Berlin; Caco-2, human colorectal carcinoma cells, ATCC HTB-37; B16F10, mouse melanoma cells, ATCC CRL-6475) were plated at a density of 5,000 cells/well (DU145, HeLa-MaTu-ADR), 3,000 cells/well (NCI-H460, HeLa), 1,500 cells/well (Caco-2), or 1,000 cells/well (B16F10) in a 96-well multititer plate in 200 μL of their respective growth medium supplemented 10% fetal calf serum. After 24 hours, the cells of one plate (zero-point plate) were stained with crystal violet (see below), while the medium of the other plates was supplemented with the test substances in various concentrations (0 μM, as well as in the range of 0.0001-10 μM; the final concentration of the solvent dimethyl sulfoxide was adjusted to 0.1%) using a Hewlett-Packard HP D300 Digital Dispenser. The cells were incubated for 4 days in the presence of test substances. Cell proliferation was determined by staining the cells with crystal violet: the cells were fixed by adding 20 μl/measuring point of an 11% glutaric aldehyde solution for 15 minutes at room temperature. After three washing cycles of the fixed cells with water, the plates were dried at room temperature. The cells were stained by adding 100 μl/measuring point of a 0.1% crystal violet solution (pH 3.0). After three washing cycles of the stained cells with water, the plates were dried at room temperature. The dye was dissolved by adding 100 μl/measuring point of a 10% acetic acid solution. The extinction was determined by photometry at a wavelength of 595 nm. The change of cell number, in percent, was calculated by normalization of the measured values to the extinction values of the zero-point plate (=0%) and the extinction of the untreated ([…]) cells (=100%). The IC50 values (inhibitory concentration at 50% of maximal effect) were determined by means of a 4 parameter fit. A2780 human ovarian carcinoma cells (ECACC #93112519) and non-adherent MOLM-13 human acute myeloid leukemia cells (DSMZ ACC 554) were seeded at a density of 3,000 cell/well (A2780) or 5,000 cells/well (MOLM-13) in a 96-well multititer plate in 150 μL of growth medium supplemented 10% fetal calf serum. After 24 hours, cell viability of one plate (zero-point plate) was determined with the Cell Titre-Glo Luminescent Cell Viability Assay (Promega), while the medium of the other plates was supplemented with the test substances in various concentrations (0 μM, as well as in the range of 0.0001-10 μM; the final concentration of the solvent dimethyl sulfoxide was adjusted to 0.1%) using a Hewlett-Packard HP D300 Digital Dispenser. Cell viability was assessed after 72-hour exposure with the Cell Titre-Glo Luminescent Cell Viability Assay (Promega). IC50 values (inhibitory concentration at 50% of maximal effect) were determined by means of a 4 parameter fit on measurement data which were normalized to vehicle (DMSO) treated cells (=100%) and measurement readings taken immediately before compound exposure (=0%).

In the case of `C[N+]1(C)[C@@H]2C[C@@H](OC(=O)C(O)(c3cccs3)c3cccs3)C[C@H]1[C@@H]1O[C@@H]12` [tiotropium], the protection against bronchospasms result in experiment [1] is listed as “more than 6 hours”.
Turning to `CC1CCCCCOc2cc(ccc2F)-c2cc(ncc2F)Nc2cc(CS(C)(=N)=O)cc(n2)O1` (single isomer, unassigned) [Example 26, 3,22-difluoro-14-methyl-10-[(S-methylsulfonimidoyl)methyl]-13,20-dioxa-5,7,26-triazatetracyclo[19.3.1.1^2,6.1^8,12]heptacosa-1(25),2(27),3,5,8(26),9,11,21,23-nonaene], the IC50 against CDK9/CycT1 worked out at 0.004 µM; against CDK2/CycE it was 13 µM; in the experiment with A2780 cells (Homo sapiens, A2780, 72 h), 0.053 µM. Besides, the “Selectivity high ATP CDK9 over high ATP CDK2: IC50 (high ATP CDK2)/IC50 (high ATP CDK9)” value on CDK9/CycT1 was 3250.
On to `CC1CCCCCOc2cc(ccc2F)-c2cc(ncc2F)Nc2cc(CS(C)(=N)=O)cc(n2)O1` (single isomer, unassigned) [Example 27, 3,22-difluoro-14-methyl-10-[(S-methylsulfonimidoyl)methyl]-13,20-dioxa-5,7,26-triazatetracyclo[19.3.1.1^2,6.1^8,12]heptacosa-1(25),2(27),3,5,8(26),9,11,21,23-nonaene], for which the results for the IC50 at CDK9/CycT1, against CDK2/CycE and with A2780 cells were 0.005 µM, 2.72 µM and 0.102 µM, respectively. In addition, the “Selectivity high ATP CDK9 over high ATP CDK2: IC50 (high ATP CDK2)/IC50 (high ATP CDK9)” value at CDK9/CycT1 came to 544.
